# Source: patent US20150011528A1, “PHENYLIMIDE-CONTAINING BENZOTHIAZOLE DERIVATIVE OF ITS SALT AND PHARMACEUTICAL COMPOSITION COMPRISING THE SAME” (YUHAN CORPORATION, priority 2011, published 2015)
# Key:
# Format in all cases: cell-based
# A549 cells = assay: Cell Migration Assay (transwell, laminin); conditions: Homo sapiens, laminin 10 μg/mL in lower well, test compounds 0.39˜100 μM, 6 hours at 37° C.
# Outline: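 A549 cells in serum-free RPMI1640 migrated 6 h at 37 °C through 8.0 μm-pore polycarbonate membranes toward laminin (10 μg/mL), compound (0.39–100 μM) in both chambers. Migrated cells hematoxylin-stained, counted at three fields (×20); IC50 by non-linear regression.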
# Cytotoxicity Study (WST) = conditions: human; A549 cells, serum-free RPMI1640, test compounds 0.39˜100 μM, 5 hours + 2 hours WST, absorbance 450 nm
# Experimental: A549 cells (Korean Cell Line Bank) was added to a 96-well plate in a concentration of 2×10^4 cells per well and then a RPMI1640 medium supplemented with 10% fetal bovine serum was added to each well. After culturing 24 hours, the medium was changed with a serum-free RPMI1640 medium and then test compounds (0.39˜100 μM) were treated. After culturing at 37° C. for 5 hours in a CO2 incubator, 10 μL of a WST reagent (Roche) was added to each well, which was then cultured for additional 2 hours. A microplate reader was used to measure the absorbance at 450 nm. From the absorbance values, each IC50 value was calculated by non-linear regression curve fit using the ‘GraphPad Prism” program.
# The cytotoxicity study was performed, using the reduction of WST by the NADH produced by the electron transport system of mitochondria. […] Therefore, the compounds of the present invention have therapeutic activity against a disease associated with cancer cell metastasis through (i) selective inhibition against the binding between KRS and LR and (ii) inhibition of cell migration, rather than non-specific cytotoxicity.
# [1] = biological target: T1, interaction between the KRS protein and the laminin receptor (LR) (Homo sapiens, UniProt Q15046); assay: Yeast Two Hybrid inhibition of the interaction between the KRS protein and the laminin receptor (LR); conditions: 1 μL of 20 mM DMSO solution per 200 μL culture; 30° C., 6 days; absorbance 540 nm; non-treated control = 100%
# T1 construct: expressed in transfected cells; host or cells: yeast EGY/SH cells
# T1 sequence (Q15046 whole entry): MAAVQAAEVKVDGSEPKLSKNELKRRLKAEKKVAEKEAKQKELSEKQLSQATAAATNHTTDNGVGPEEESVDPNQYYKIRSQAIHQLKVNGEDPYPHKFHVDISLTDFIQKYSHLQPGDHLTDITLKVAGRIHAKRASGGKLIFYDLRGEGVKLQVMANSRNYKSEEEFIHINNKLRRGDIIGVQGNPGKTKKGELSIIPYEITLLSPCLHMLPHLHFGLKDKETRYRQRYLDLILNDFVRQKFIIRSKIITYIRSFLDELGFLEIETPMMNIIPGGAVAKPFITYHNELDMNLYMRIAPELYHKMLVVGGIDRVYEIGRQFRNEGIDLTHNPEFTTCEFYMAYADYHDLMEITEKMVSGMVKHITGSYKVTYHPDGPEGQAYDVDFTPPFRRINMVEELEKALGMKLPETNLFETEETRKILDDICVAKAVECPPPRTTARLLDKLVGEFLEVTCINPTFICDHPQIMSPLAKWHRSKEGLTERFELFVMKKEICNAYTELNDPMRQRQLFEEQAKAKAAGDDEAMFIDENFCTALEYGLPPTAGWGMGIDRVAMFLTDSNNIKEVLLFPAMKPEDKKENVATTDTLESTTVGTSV
# Experimental: The inhibitory activity against the interaction between the KRS protein and the laminin receptor (LR) was evaluated according to the Yeast Two Hybrid method described in WO2011/056021. According to the disclosures of WO2011/056021, we prepared a vector obtained by cloning the KRS gene in the LexA vector (Clontech) and a vector obtained by cloning the LR gene in the B42 vector (Clontech). The yeast cells, i.e., EGY/SH cells were co-transformed with the LexA-KRS vector and the B42-LR vector. The co-transformation was carried out using the Yeastmaker yeast transformation system2 kit (Clontech), according to the manufacturer's instruction. […] The cultured yeast cells were diluted with the said galactose medium, until the absorbance at 540 nm attains to about 0.15 to 0.2. The diluted culture (200 μL), containing the yeast cells, was added to each well of a 96-well plate. Each test compound was dissolved in dimethyl sulfoxide at a concentration of 20 mM and then the resulting solutions (1 μL) were added to each well. The plate was cultured at 30° C. for 6 days and then the absorbance of the each well was measured at 540 nm.
# (§1) And also, specificity of the inhibitory activity was evaluated, using the yeast cells cotransformed with the LexA-KRS vector and the B42-AIMP2 vector; and the yeast cells co-transformed with the LexA-KRS vector and the B42-AIMP3 vector, which were respectively prepared according to WO2011/056021. The co-transformation was carried out using the Yeastmaker yeast transformation system2 kit (Clontech), according to the manufacturer's instruction. […] The cultured yeast cells were diluted with the said galactose medium, until the absorbance at 540 nm attains to about 0.15 to 0.2. The diluted culture (200 μL), containing the yeast cells, was added to each well of a 96-well plate. Each test compound was dissolved in dimethyl sulfoxide at a concentration of 20 mM and then the resulting solutions (1 μL) were added to each well. The plate was cultured at 30° C. for 6 days and then the absorbance of each well was measured at 540 nm. The respective yeast cell proliferation rates (%) in the treated samples were calculated in comparison with those of the non-treated control (100%) and the results thereof are shown in Table 1 below.
# When KRS is bound to LR, the trans-activation domain is come close to the DNA-binding domain and the genes for synthesizing essential amino acids are expressed, which leads to normal growth of the transformed yeasts, thereby increasing the absorbance.
# [2] = biological target: T2, binding between KRS and AIMP2 (Homo sapiens, UniProt Q15046); assay: Yeast Two Hybrid specificity test, LexA-KRS / B42-AIMP2 co-transformed yeast cells; conditions: 1 μL of 20 mM DMSO solution per 200 μL culture; 30° C., 6 days; absorbance 540 nm; non-treated control = 100%
# T2 construct: expressed in transfected cells; host or cells: yeast cells (co-transformed)
# T2 sequence (Q15046 whole entry): as above
# Experimental: as §1
# [3] = biological target: T3, binding between KRS and AIMP3 (Homo sapiens, UniProt Q15046); assay: Yeast Two Hybrid specificity test, LexA-KRS / B42-AIMP3 co-transformed yeast cells; conditions: 1 μL of 20 mM DMSO solution per 200 μL culture; 30° C., 6 days; absorbance 540 nm; non-treated control = 100%
# T3 construct: expressed in transfected cells; host or cells: yeast cells (co-transformed)
# T3 sequence (Q15046 whole entry): as above
# Experimental: as §1
SMILES,IC50 (A549 cells) [µM],Yeast cell proliferation rates KRS-LR (%) [1] [%],Yeast cell proliferation rates KRS-AIMP2 (%) [2] [%],Yeast cell proliferation rates KRS-AIMP3 (%) [3] [%],IC50 at 5 h (Cytotoxicity Study (WST)) [µM]
"COc1cccc2sc(=NC(=O)c3cccc(C(F)(F)F)c3)n(C(C)C(=O)O)c12 (stereo not drawn) [Example 283, 2-(4-methoxy-2-(3-(trifluoromethyl)benzoylimino)benzo[d]thiazol-3(2H)-yl)propionic acid]",10,–,–,–,108
"CCC(C(=O)O)n1c(=NC(=O)c2ccccc2)sc2ccccc21 (stereo not drawn) [Example 136, 2-[2-(benzoylimino)benzo[d]thiazol-3(2H)-yl]butanoic acid]",–,–,–,–,281
"CCC(C(=O)O)n1c2c(sc1=NC(=O)c1cccc(Cl)c1)CCCC2 (stereo not drawn) [Example 299, 2-(2-(3-chlorobenzoylimino)-4,5,6,7-tetrahydrobenzo[d]thiazol-3(2H)-yl)butanoic acid]",7.9,13.8,92.0,90.4,344
"O=C(O)Cn1c(=NC(=O)c2cccc(C(F)(F)F)c2)sc2ccccc21 [Example 125, 2-[2-(3-(trifluoromethyl)benzoylimino)benzo[d]thiazol-3(2H)-yl]acetic acid]",8.4,–,–,–,7490
"Cc1ccc(C(=O)N=c2sc3cc(C(F)(F)F)ccc3n2CC(=O)O)cc1 [Example 246, 2-(2-((4-methylbenzoyl)imino)-6-(trifluoromethyl)benzo[d]thiazol-3(2H)-yl)acetic acid]",12,–,–,–,245
"CCC(C(=O)O)n1c(=NC(=O)c2ccc([N+](=O)[O-])cc2)sc2ccccc21 (stereo not drawn) [Example 81, 2-[2-(4-nitrobenzoylimino)benzo[d]thiazol-3(2H)-yl]butanoic acid]",–,–,–,–,828
"O=C(O)Cn1c(=NC(=O)c2cccc(C(F)(F)F)c2)sc2c(F)cccc21 [Example 356, 2-(7-fluoro-2-((3-(trifluoromethyl)benzoyl)imino)benzo[d]thiazol-3(2H)-yl)acetic acid]",40.9,–,–,–,1190
"Cc1ccc(C(=O)N=c2sc3c(C(F)(F)F)cccc3n2C(C)C(=O)O)cc1 (stereo not drawn) [Example 98, 2-[2-(4-methylbenzoylimino)-7-(trifluoromethyl)benzo[d]thiazol-3(2H)-yl]propionic acid]",5.2,–,–,–,74.9

# Now from value to compound, other results behind:
IC50 (A549 cells) [µM],Yeast cell proliferation rates KRS-LR (%) [1] [%],Yeast cell proliferation rates KRS-AIMP2 (%) [2] [%],Yeast cell proliferation rates KRS-AIMP3 (%) [3] [%],SMILES,IC50 at 5 h (Cytotoxicity Study (WST)) [µM]
5.8,–,–,–,"CCC(C(=O)O)n1c(=NC(=O)c2cccc(Cl)c2)sc2cc(OC(F)(F)F)ccc21 (stereo not drawn) [Example 176, 2-(2-((3-chlorobenzoyl)imino)-6-(trifluoromethoxy)benzo[d]thiazol-3(2H)-yl)butanoic acid]",247
37.4,–,–,–,"CC(C(=O)O)n1c(=NC(=O)c2cccc(Cl)c2)sc2cc(F)c(C(F)(F)F)cc21 (stereo not drawn) [Example 388, 2-(2-((3-chlorobenzoyl)imino)-6-fluoro-5-(trifluoromethyl)benzo[d]thiazol-3(2H)-yl)propionic acid]",368
9.8,–,–,–,"CC(C(=O)O)n1c(=NC(=O)c2cccc(Cl)c2)sc2cc(F)c(F)cc21 (stereo not drawn) [Example 289, 2-(2-((3-chlorobenzoyl)imino)-5,6-difluorobenzo[d]thiazol-3(2H)-yl)propionic acid]",877
12.9,14.5,95.8,101.4,"CC(C(=O)O)n1c(=NC(=O)c2cccc(Cl)c2)sc2c(Cl)cccc21 (stereo not drawn) [Example 309, 2-(7-chloro-2-((3-chlorobenzoyl)imino)benzo[d]thiazol-3(2H)-yl)propionic acid]",134
80,–,–,–,"CCC(C(=O)O)n1c(=NC(=O)c2cccc(F)c2)sc2cc(F)c(F)cc21 (stereo not drawn) [Example 442, 2-(5,6-difluoro-2-((3-fluorobenzoyl)imino)benzo[d]thiazol-3(2H)-yl)butanoic acid]",361
142,34.6,104.3,108.4,"CCC(C(=O)O)n1c(=NC(=O)c2cccc(Cl)c2)sc2ccc(Cl)cc21 (stereo not drawn) [Example 361, 2-(5-chloro-2-((3-chlorobenzoyl)imino)benzo[d]thiazol-3(2H)-yl)butanoic acid]",581
6.6,–,–,–,"CC(C(=O)O)n1c(=NC(=O)c2cccc(C(F)(F)F)c2)sc2c(Cl)cccc21 (stereo not drawn) [Example 308, 2-(7-chloro-2-((3-(trifluoromethyl)benzoyl)imino)benzo[d]thiazol-3(2H)-yl)propionic acid]",267
15.9,–,–,–,"CCC(C(=O)O)n1c(=NC(=O)c2cc(F)cc(F)c2)sc2ccccc21 (stereo not drawn) [Example 78, 2-[2-(3,5-difluorobenzoylimino)benzo[d]thiazol-3(2H)-yl]butanoic acid]",636
3.2,35.1,87.0,99.0,"CCC(C(=O)O)n1c(=NC(=O)c2cccc(Cl)c2)sc2cc(F)c(F)cc21 (stereo not drawn) [Example 290, 2-(2-((3-chlorobenzoyl)imino)-5,6-difluorobenzo[d]thiazol-3(2H)-yl)butanoic acid]",172
1,–,–,–,"CCC(C(=O)O)n1c(=NC(=O)c2cccc(C(F)(F)F)c2)sc2cc(F)c(F)cc21 (stereo not drawn) [Example 293, 2-(5,6-difluoro-2-((3-(trifluoromethyl)benzoyl)imino)benzo[d]thiazol-3(2H)-yl)butanoic acid]",144
2.7,31.2,103.3,104.7,"CCOc1ccc2c(c1)sc(=NC(=O)c1cccc(Cl)c1)n2C(CC)C(=O)O (stereo not drawn) [Example 56, 2-{2-[(3-chlorobenzoyl)imino]-6-ethoxybenzo[d]thiazol-3(2H)-yl}butanoic acid]",95.5
